Results published in patent US11613531B2, “Inhibitors of RHO associated coiled-coil containing protein kinase” (Kadmon Corporation, LLC, priority 2017, dated 2023).

Columns and labels:
[1] = tested on: ppMlc (T18/S19) levels in A7R5 cells; assay: A7R5 in-cell ELISA (pMLC); format: cell-based, Rat; conditions: Rattus norvegicus, A7R5, A7R5 cells
In short: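 A7R5 rat aortic smooth muscle cells seeded 24 h, then treated 90 min with a 9-point 2-fold compound dilution series. Fixed cells probed for ppMlc (T18/S19) by colorimetric in-cell ELISA; cellular IC50 from nonlinear regression curve fit.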

[2] = tested on: Bleomycin induced lung fibrosis in mice; assay: Therapeutic bleomycin induced lung fibrosis model; format: in vivo
Excerpt: FIG. 10a. ROCK inhibitor is therapeutically active in a mouse model of pulmonary fibrosis. Representative images of lung sections stained with Masson's trichrome to visualized fibrosis in the lungs of mice following therapeutic treatment with ROCK inhibitor in the bleomycin-induced lung injury model.
FIG. 10b. Quantitation of the decrease in the fibrosis index in the histopathological analysis of the images from ROCK inhibitor and vehicle treated mice in the bleomycin-induced lung injury model.
FIG. 10c. ROCK target engagement analysis in the lung tissue from the bleomycin-induced pulmonary fibrosis model.
Therapeutic Efficacy of Compounds in Bleomycin Induced Lung Fibrosis in Mice
Male C57B/L6 mice were housed for acclimation for no less than 7 days. After acclimation period, animals were randomly assigned to treatment groups. On day 0, mice were anesthetized with 5% isoflurane by inhalation for 10-15 mins and then suspended by their front teeth on a wire attached to a fixed animal operating plate. 50 μL of saline or bleomycin solution was administered via intratracheal instillation. […]
The activity of ROCK inhibitors in attenuating pulmonary fibrosis in a therapeutic dosing setting was assessed in a bleomycin-induced model, following intratracheal bleomycin installation to induce lung tissue damage and consequent fibrosis of the lung. […]
The improvement in the overall lung fibrosis was quantitated for each animal in the control and treatment groups. […]
In addition to the determination of the therapeutic activity of ROCK inhibition in the pulmonary fibrosis model, target engagement and the extent of ROCK inhibition in the lung of drug treated animals were also determined. Protein extracts were prepared from the snap frozen lung samples and separated on SDS-PAGE and analyzed by Western blotting. ROCK kinase direct target, phosphorylated myosin-binding subunit of myosin phosphatase (MYPT, pT853) and a ROCK pathway regulated protein CCN1 expression levels were detected. […] Western blot results were quantitated by the Image J densitometry program. […]

[3] = tested on: human ACTA2 gene promoter luciferase reporter in NIH3T3 cells; assay: NIH3T3 Acta2-promoter driven-luciferase assay; format: cell-based; conditions: NIH3T3, 24 h, NIH3T3 cells, plus TGFβ1 for 24 hr; read-out: NIH3T3 Acta2-luc, IC50
In short: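 NIH3T3 cells stably carrying a human ACTA2 promoter (−1000-1 bp)-luciferase reporter, grown to confluence, treated 24 hr with compound plus TGFβ1 at 9-point serial dilution. Luciferase read after lysis; IC50 by nonlinear regression.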

[4] = bleomycin treated mouse lungs, western blot

Clc1cnc(N2C3CCC2CNC3)nc1Nc1ccc2[nH]ncc2c1 [Example 192, N-(2-(3,8-diazabicyclo[3.2.1]octan-8-yl)-5-chloropyrimidin-4-yl)-1H-indazol-5-amine]
inhibition at 1 µM ([1]; 1 μM compound, read-out: pMLC % inh A7R5 @ [conc]): 53.5%
IC50 ([1]; ppMlc (T18/S19)): 98 nM
CCN1 total protein levels in lung [2, 4]: reduction
phosphorylated MYPT (pT853) levels in lung [2, 4]: reduction
collagen amounts in the lungs ([2]; mice, therapeutic dosing from day 7, Masson's trichrome-stained sections): significantly lower
IC50 [3]: 189 nM
